Experimental data taken from US7569695B2, “Dyes for the detection or quantification of desirable target molecules” (Enzo Life Sciences, Inc., priority 2005, dated 2009).

How the values were obtained:
[1] = system: 78 bp amplicon of the anti-sense C construct; test: Amplification on the Light Cycler in the presence of Dye 122 and 109a, 19 cycles (Example 35); assay type: biochemical
Description: A target template was amplified on the Light Cycler (Roche) in the presence of various amounts of SYBR Green and Dye 122 from Example 32. In addition, a byproduct from the silica gel chromatography of Dye 109 in step (g) of Example 14 was also used. This compound is believed to have a single protonation of one of the amines of Dye 109 and as such will be termed Dye 109a. The stock of Dye 122 was OD=200 measured at 488 nm and the stock of Dye 109a was OD=200 measured at 498 nm. The template was a 1:50,000 dilution of the 78 bp amplicon of the anti-sense C construct described previously. • A master-mixture was made up of: • 350 µl of 2×PCR mix described in Example 33 • 14 l of 25 mM MgCl2 • 175.0 l of DEPC treated H2O • 7 l of 10 mg/ml BSA (New England Biolabs, Beverly, Mass.) • 7 l Taq polymease (Perkin Elmer)+7 l of TaqStart (Clontech)
2.0 l of target template+2.0 l of various dye dilutions were added to 16 µl of Master mixture, and then amplified as described previously in Example 33 except that the incubation at 45° C. for 10 minutes was eliminated since ung was not used for this series of amplifications. The amplification was stopped after 19 cycles. The results of this series of amplifications are seen in FIG. 3. […] For Dye 109a, similar features were seen where 1:10 was inhibitory (lane 18) and 1:30 was optimal (lanes 19 and 20).

anti-sense C amplicon = test: Amplification of various amounts of target with fixed dye levels, 29 cycles (Example 37); assay type: biochemical; settings: 1:1000 dilution of SYBR Green
Protocol: In the previous experiments, a fixed amount of target was amplified in the presence of varying level of dyes. The eventual use of these dyes is going to be with a fixed amount of dye and varying levels of targets. As such, an experiment was carried out using previously determined optimal levels of dyes and various amounts of input target (again using the anti-sense C as a model). • Dilution 1=1:100,000 • Dilution 2=1:1,000,000 • Dilution 3=1:10,000,000 • Dilution 4=1:100,000,000 • Dilution 5=1:1,000,000,000 • Dilution 6=1:10,000,000,000
Selected amounts of target template were amplified on the Light Cycler (Roche) in the presence of various amounts of Dye 122, Dye 109a and SYBR Green.
A master mixture was made up of: • 380 l of 2×PCR mix described in Example 33 • 15.2 l of 25 mM MgCl2 • 190.0 l of DEPC treated H2O • 7.6 l of 10 mg/ml BSA (New England Biolabs, Beverly, Mass.) • 7.6 l Taq polymease (Perkin Elmer)+7.6 l of TaqStart (Clontech)
2.0 l of target template (1:50,000 dilution of the antisense C amplicon)+2.0 l of various dye concentrations were added to 16 µl of Master mixture and amplified as described previously in Example 33 stopping after 29 cycles. Dye additions were from the 1:1000 dilution of SYBR Green, 1:30 of Dye 109a and 1:30 of Dye 122.
At the highest input level (Dil 2 1:1,000,000 dilution of amplicon) no evidence of amplification is seen in the sample without dye.

## CCCN(CCCN(C)C)c1cc(/C=C2/Sc3ccccc3N2C)c2ccccc2[n+]1-c1ccccc1 [SYBR Green, reference compound]
[1]; 1:800 dilution of SYBR Green, lanes 4 and 5
  amplification (gel analysis, FIG. 3): best amplification
[1]; SYBR Green dilutions on either side of 1:800
  amplification (gel analysis, FIG. 3): sharp drop off
anti-sense C amplicon; Dil 2 (1:1,000,000) target input
  amplification product (gel analysis, FIG. 5): faint but visible band
anti-sense C amplicon; further dilutions of target
  amplification product (gel analysis, FIG. 5): do not show any evidence of an amplification product
